Assay results taken from patent US12325708B2, “Adenosine 2 receptor antagonists” (Nektar Therapeutics, priority 2019, dated 2025).
≈ marks a conversion by molar mass, not a printed value.

Assays:
[1] = Plasma pharmacokinetic parameters of Compound 1 in mice; format: in vivo; details: mouse, PO 30 mg/kg
Excerpt: (§1) Pharmacokinetic parameters were further estimated in vivo after IV or PO administration of Compound 1 in mice and dogs with the results provided in Table 4 below.

[2] = Plasma pharmacokinetic parameters of Compound 1 in dogs; format: in vivo; details: dog
Excerpt: as §1

[3] = Permeability Caco-2 Papp and efflux ratio; format: in vitro ADME; details: human
Solubility = format: physicochemical
[4] = Hepatic clearance in vitro CLint, mouse liver microsomes; format: in vitro ADME
[5] = Hepatic clearance in vitro CLint, rat liver microsomes; format: in vitro ADME
[6] = Hepatic clearance in vitro CLint, dog liver microsomes; format: in vitro ADME
[7] = Hepatic clearance in vitro CLint, human liver microsomes; format: in vitro ADME
[8] = Plasma protein binding (PPB), mouse; format: in vitro ADME; details: read-out: Plasma protein binding (PPB) (fu)
[9] = Plasma protein binding (PPB), rat; format: in vitro ADME; details: read-out: Plasma protein binding (PPB) (fu)
[10] = Plasma protein binding (PPB), dog; format: in vitro ADME; details: read-out: Plasma protein binding (PPB) (fu)
[11] = Plasma protein binding (PPB), human; format: in vitro ADME; details: read-out: Plasma protein binding (PPB) (fu)
A1 receptor = target: T1, A1 receptor (Homo sapiens, UniProt P30542); test: Radioligand receptor binding assay, A1 receptor; details: cell membranes overexpressing A1 receptor, read-out: Potency Ki A1
T1 construct: purchased
T1 sequence (P30542 1-326): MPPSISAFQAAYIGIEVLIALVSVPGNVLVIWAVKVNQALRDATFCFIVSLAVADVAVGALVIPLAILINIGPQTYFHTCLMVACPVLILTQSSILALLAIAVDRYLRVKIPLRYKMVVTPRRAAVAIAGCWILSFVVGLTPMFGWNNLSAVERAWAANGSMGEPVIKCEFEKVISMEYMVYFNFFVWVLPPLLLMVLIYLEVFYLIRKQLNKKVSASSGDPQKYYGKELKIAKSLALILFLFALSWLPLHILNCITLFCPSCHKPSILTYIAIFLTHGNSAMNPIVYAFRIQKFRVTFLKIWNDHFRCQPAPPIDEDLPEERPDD
Method in brief: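 Membranes from cell lines overexpressing human A2A, A1 or A3 receptors were incubated 60 min at room temperature with the receptor-appropriate [3H] tracer. After filtration and washing in 50 mM Tris HCl pH 7.5, bound label was counted by scintillation. IC50 came from nonlinear regression and Ki from the Cheng-Prusoff equation.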

A3 receptor = target: T2, A3 receptor (Homo sapiens, UniProt P0DMS8); test: Radioligand receptor binding assay, A3 receptor; details: cell membranes overexpressing A3 receptor, read-out: Potency Ki A3
T2 construct: purchased
T2 sequence (P0DMS8 1-318): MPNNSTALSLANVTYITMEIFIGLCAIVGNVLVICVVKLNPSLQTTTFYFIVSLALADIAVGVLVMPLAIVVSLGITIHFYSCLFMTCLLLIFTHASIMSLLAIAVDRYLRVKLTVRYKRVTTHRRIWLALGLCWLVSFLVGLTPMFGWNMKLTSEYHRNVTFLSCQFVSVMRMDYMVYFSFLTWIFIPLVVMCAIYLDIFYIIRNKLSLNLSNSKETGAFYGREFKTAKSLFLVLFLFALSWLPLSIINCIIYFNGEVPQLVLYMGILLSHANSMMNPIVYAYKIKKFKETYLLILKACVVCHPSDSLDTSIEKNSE
Experimental: Using conventional receptor binding assay techniques, Compounds 1-24 were assayed to determine binding activity at the A2A, A1, and A3 receptors with the results shown in Table 7.
Receptor binding affinity of Compounds 1-24 was measured using radioligand binding assays using commercially obtained cell membranes prepared from cell lines overexpressing the A2A, A1, or A3 receptors. Briefly, cell membrane preparations from cells expressing the specific receptor were mixed with the appropriate [^3H]-labeled tracer for the specific receptor and the test compound or a known inhibitor of receptor-ligand binding. Following 60 min incubation at room temperature to allow receptor-ligand complex formation, the complexes were collected by filtration, washed with 50 mM Tris HCl (pH 7.5) to remove radioligand that was not receptor-bound, and the remaining radioactivity determined by liquid scintillation counting. Specific radioligand binding was calculated for each test compound concentration and IC50 values were determined by non-linear, regression analysis. Inhibition constants (Ki) were calculated using the equation of Cheng and Prusoff using the observed IC50 of the tested compound, the concentration of radioligand employed in the assay and the experimentally determined values for the Kd of the ligand.

mouse CT-26 cells = test: Antitumor activity in CT26 subcutaneous tumor model in Balb/c mice; format: in vivo; details: day 13 vs vehicle
Experimental: Mice used were ˜ 6-8 week-old female Balb/c mice subcutaneously inoculated with 2×10^6 mouse CT-26 cells. […] The mice were divided into six treatment groups as follows: vehicle (qdx9) PO+IP, Compound 1 (10 mg/kg, qdx9)+an exemplary anti-mouse PD1 (CD279) antibody (BioXCell) (200 μg/mouse, q2dx4); Compound 1 (30 mg/kg, qdx9)+anti-PD1 antibody (200 μg/mouse, q2dx4), Compound 1 (100 mg/kg)+anti-PD1 antibody (200 μg/mouse, q2dx4), anti-PD1 antibody (200 μg/mouse, q2dx4), or preladenant (30 mg/kg, qdx9)+anti-PD1 antibody (200 μg/mouse, q2dx4). Compound 1 and preladenant were administered orally. The anti-PD1 antibody was administered IP. Body weight was measured daily. Tumor growth of the CT26 cells was monitored three times per week by measuring the tumor volume size using a caliper with the results shown in FIG. 5.

Molecule `COCCOc1ccc(N2CCN(CCN(C)c3cc4nc(-c5ncco5)nn4c(N)n3)CC2)cc1` [Compound 1, N^7-(2-{4-[4-(2-methoxyethoxy)phenyl]piperazin-1-yl}ethyl)-N^7-methyl-2-(1,3-oxazol-2-yl)[1,2,4]triazolo[1,5-c]pyrimidine-5,7-diamine] has an AUC(0-inf) [1] of 5760 ng·h/mL, an F ([2]; PO 1&10 mg/kg vs IV 0.2 mg/kg) of over 100% and a clearance ([2]; plasma, IV 0.2 mg/kg) of 12 mL/min/kg. It also gave a half-life ([2]; plasma, IV 0.2 mg/kg) of 6 h, a Vd ([2]; plasma, IV 0.2 mg/kg, read-out: Vss) of 5.2 L/kg and an AUC(0-inf) ([2]; plasma, PO 1 mg/kg) of 2020 ng·h/mL. For the same molecule, the AUC(0-inf) ([2]; plasma, PO 10 mg/kg) was 17900 ng·h/mL, the Papp [3] was 14.5 ×10⁻⁶ cm/s and the efflux ratio ([3]; read-out: Efflux Ratio (ER)) was 1.6. The solubility (Solubility; pH ~3) was about 5000 µM (≈ 2470 µg/mL), the solubility (Solubility; pH ~7) was 20 to 40 µM (≈ 9.87 to 19.7 µg/mL) and the microsomal CLint [4] was 29 µL/min/mg. It also gave a microsomal CLint [5] of 17 µL/min/mg, a microsomal CLint [6] of under 1 µL/min/mg and a microsomal CLint [7] of 43 µL/min/mg. It also gave a fraction unbound [8] of 0.19, a fraction unbound [9] of 0.15 and a fraction unbound [10] of 0.43. The fraction unbound [11] was 0.39, the Ki (A1 receptor) was 50 µM and the Ki (A3 receptor) was over 10 µM. For the same molecule, the “% TGI” value (mouse CT-26 cells; 10 mg/kg qdx9 PO + anti-PD1 antibody 200 μg/mouse q2dx4 IP) was 34%, the “% TGI” value (mouse CT-26 cells; 30 mg/kg qdx9 PO + anti-PD1 antibody 200 μg/mouse q2dx4 IP) was 41^1% and the “% TGI” value (mouse CT-26 cells; 100 mg/kg PO + anti-PD1 antibody 200 μg/mouse q2dx4 IP) was 47^2%.

`COCCOc1cnc(N2CCN(CCN(C)c3cc4nc(-c5ncco5)nn4c(N)n3)CC2)c(F)c1` [Compound 4, N^7-(2-{4-[3-fluoro-5-(2-methoxyethoxy)pyridin-2-yl]piperazin-1-yl}ethyl)-N^7-methyl-2-(1,3-oxazol-2-yl)[1,2,4]triazolo[1,5-c]pyrimidine-5,7-diamine] gave a Ki (A1 receptor) of 14 µM.
